This passage reports EC50 results from patent US20260152484A1, “HETEROCYCLIC COMPOUNDS AS TRIGGERING RECEPTOR EXPRESSED ON MYELOID CELLS 2 AGONISTS” (Vigil Neuroscience, Inc., priority 2021, published 2026).

The structures appear in SMILES notation.

For orientation: EC50 means the concentration at which the effect is half-maximal. A high value points to a need for much substance.

T1 sequence (Q9NZC2 19-230): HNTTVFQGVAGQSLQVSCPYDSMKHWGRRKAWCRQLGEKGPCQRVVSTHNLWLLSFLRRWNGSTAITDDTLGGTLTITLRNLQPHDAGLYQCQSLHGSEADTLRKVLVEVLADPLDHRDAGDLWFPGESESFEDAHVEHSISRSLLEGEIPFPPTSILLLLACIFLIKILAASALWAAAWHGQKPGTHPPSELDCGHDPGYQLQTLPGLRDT
T1 sequence (O43914 22-113 partner): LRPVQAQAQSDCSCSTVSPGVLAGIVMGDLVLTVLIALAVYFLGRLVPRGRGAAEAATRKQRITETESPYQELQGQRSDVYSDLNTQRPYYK

The first assay addresses T1, human TREM2 (Homo sapiens, UniProt Q9NZC2).
T1 construct: expressed in transfected cells; host or cells: HEK293T (HEK293T-hTREM2 cells)
Put plainly: Cellular phosphorylation of Syk (AlphaLisa) in HEK293T-hTREM2 cells, TREM2 agonist potency. It counts as cell-based. To be noted: HEK293 cells expressing human TREM2 and DAP12; pSyk AlphaLisa; Table D. How it is done:
In Vitro Measurement of Triggering Receptor Expressed on Myeloid Cells 2 Activity Using Cellular Phosphorylation of Spleen Tyrosine Kinase (“Syk”) Assays
Measurement of TREM2 agonist potency was done using a HEK cell line expressing human TREM2 and DAP12 (HEK293T-hTREM2 cells). Binding of small molecules to, and activation of, TREM2 increases the phosphorylation of Syk. The resultant levels of Syk phosphorylation are measured using a commercial AlphaLisa reagent kit. To perform the assay, HEK-hTREM2 cells were plated at 14,000 cells per well in a 384 well plate, in 25 μL of complete growth media and incubated at 37° C., 5% CO2 for 20-24 hours.
Prior to the assay, test compounds were diluted in the 384 well plates in assay buffer and allowed to equilibrate for 30 minutes. Growth media was removed from cell plates by inversion on blotting paper, and 25 μL of test articles in assay buffer was added to cells. Cells were incubated for 45 minutes at room temperature. After 45 minutes, assay buffer was removed and 10 μL of lysis buffer was added. Plates were shaken for 20 minutes at 350 RPM at room temperature. After complete lysis, AlphaLisa reagents were added to the lysate, and fluourescence intensity was measured using a Perkin Elmer Envision plate reader. Intensities were used to generate a standard curve, and % activation was calculated. Curve fitting was performed using Prism v9 software, log(agonist) vs response—variable slope (four parameters), and EC50s were calculated from the curve fit.
The results presented in Table D have been generated with the in vitro assay described above. This assay may be used to test any of the compounds described herein to assess and characterize a compound's ability to act as an agonist of TREM2.
Background: In Alpha technology, singlet oxygen from a donor bead excites a nearby acceptor bead.
For the compound `Cc1cc2c(-c3ccc(Cl)cc3)nn(-c3ccc(OC(F)(F)F)cc3)c(=O)c2nc1C` [compound 1, 5-(4-chlorophenyl)-2,3-dimethyl-7-(4-(trifluoromethoxy)phenyl)pyrido[2,3-d]pyridazin-8 (7H)-one], the concentration for a half-maximal effect (EC50) lay within 0.5 to 3 µM.

As to `Cc1nc2c(=O)n(CCc3ccccc3)nc(-c3ccc(Cl)c(Cl)c3)c2s1` [compound 32, 7-(3,4-dichlorophenyl)-2-methyl-5-phenethylthiazolo[4,5-d]pyridazin-4(5H)-one], the EC50 was 3 to 100 µM.

Consider `Cc1nc2c(=O)n(CC(C)c3ccc(Cl)cc3)nc(-c3ccc(Cl)cc3)c2s1` (centres unmarked) [compound 31, 7-(4-chlorophenyl)-5-(2-(4-chlorophenyl)propyl)-2-methylthiazolo[4,5-d]pyridazin-4(5H)-one], for which the EC50 was 3 to 100 µM.

Take `Cc1cc2c(-c3ccc(Cl)cc3)nn(-c3ccc4c(c3)OCO4)c(=O)c2cc1C` [compound 19, 2-(benzo[d][1,3]dioxol-5-yl)-4-(4-chlorophenyl)-6,7-dimethylphthalazin-1(2H)-one]: the EC50 lay within 3 to 100 µM.

`Cc1nc2c(=O)n(CC(=O)c3ccc(Cl)cc3)nc(-c3ccc(Cl)cc3)c2s1` [compound 24, 7-(4-chlorophenyl)-5-(2-(4-chlorophenyl)-2-oxoethyl)-2-methylthiazolo[4,5-d]pyridazin-4(5H)-one] yielded a half-maximal effective concentration (EC50) of 3 to 100 µM.

Regarding `Cc1nc2c(=O)n(C(C)Cc3ccc(Cl)cc3)nc(-c3ccc(Cl)cc3)c2s1` (centres unmarked) [compound 30, 7-(4-chlorophenyl)-5-(1-(4-chlorophenyl)propan-2-yl)-2-methylthiazolo[4,5-d]pyridazin-4 (5H)-one], the EC50 fell in the range of 3 to 100 µM.

`Cc1nc2c(=O)n(C(C)c3ccc(Cl)cc3)nc(-c3ccc(Cl)cc3)c2s1` (centres unmarked) [compound 27, 7-(4-chlorophenyl)-5-(1-(4-chlorophenyl)ethyl)-2-methylthiazolo[4,5-d]pyridazin-4(5H)-one] gave a concentration for a half-maximal effect (EC50) of 3 to 100 µM.

The compound `Cc1cc2c(-c3ccc(Cl)cc3)nn(-c3ccnc(C4CCN(C(=O)OC(C)(C)C)CC4)c3)c(=O)c2cc1C` [compound 22, tert-butyl 4-(4-(4-(4-chlorophenyl)-6,7-dimethyl-1-oxophthalazin-2(1H)-yl)pyridin-2-yl)piperidine-1-carboxylate] showed an EC50 of 0.5 to 3 µM.

The compound `Cc1cc2c(-c3ccc(Cl)cc3)nn(-c3ccc(OC(F)(F)F)cc3)c(=O)c2cc1C` [compound 10, 4-(4-chlorophenyl)-6,7-dimethyl-2-(4-(trifluoromethoxy)phenyl)phthalazin-1(2H)-one] gave an EC50 of 0.5 to 3 µM.

For the compound `Cc1cc2c(-c3ccc(Cl)cc3)nn(-c3ccnc(C4CCC4)c3)c(=O)c2cc1C` [compound 15, 4-(4-chlorophenyl)-2-(2-cyclobutylpyridin-4-yl)-6,7-dimethylphthalazin-1(2H)-one], the EC50 lay within 0.5 to 3 µM.

The assay is the same for the next values; noted with them: HEK293 cells expressing human TREM2 and DAP12; pSyk AlphaLisa; Table D-2.
`Cc1cc2c(-c3ccc(Cl)cc3F)nn(-c3ccnc(C4COC4)c3)c(=O)c2cc1C` [I-111, 4-(4-chloro-2-fluoro-phenyl)-6,7-dimethyl-2-[2-(oxetan-3-yl)-4-pyridyl]phthalazin-1-one] registered an EC50 of 0.5 to 3 µM.

For `Cc1cc2c(-c3ccc(Cl)cc3)nn(-c3ccnc(C4COC4)c3)c(=O)c2nc1C` [I-112, 5-(4-chlorophenyl)-2,3-dimethyl-7-[2-(oxetan-3-yl)-4-pyridyl]pyrido [2,3-d]pyridazin-8-one], the EC50 fell in the range of 3 to 100 µM.

With `Cc1cc2c(-c3ccc(Cl)cc3)nn(-c3ccc(N(C)C4COC4)nc3)c(=O)c2nc1C` [I-119, 5-(4-chlorophenyl)-2,3-dimethyl-7-[6-[methyl(oxetan-3-yl)amino]-3-pyridyl]pyrido[2,3-d]pyridazin-8-one; formic acid], the EC50 fell in the range of 0.5 to 3 µM.

Take `Cc1cc2c(-c3ccc(Cl)cc3)nn(-c3ccnc(C4CC(OCc5ccccc5)C4)c3)c(=O)c2cc1C` (centres unmarked) [I-109, 2-(2-(3-(benzyloxy)cyclobutyl)pyridin-4-yl)-4-(4-chlorophenyl)-6,7-dimethylphthalazin-1 (2H)-one]: the EC50 lay in the range of 0.5 to 3 µM.

Consider `Cc1cc2c(-c3ccc(Cl)cc3)nn(-c3ccnc(Nc4cnn(C5CC5)c4)c3)c(=O)c2nc1C` [I-120, 5-(4-chlorophenyl)-7-(2-((1-cyclopropyl-1H-pyrazol-4-yl)amino)pyridin-4-yl)-2,3-dimethylpyrido[2,3-d]pyridazin-8 (7H)-one], for which the EC50 was in the range of 0.05 to 0.5 µM.

With `Cc1cc2c(-c3ccc(Cl)cc3)cn(-c3ccc(OC(F)(F)F)cc3)c(=O)c2nc1C` [I-122, 5-(4-chlorophenyl)-2,3-dimethyl-7-(4-(trifluoromethoxy)phenyl)-1,7-naphthyridin-8 (7H)-one], the EC50 was in the range of 0.5 to 3 µM.

With `Cc1cc2c(-c3ccc(Cl)cc3)nn(-c3ccnc(NC4COC4)c3)c(=O)c2nc1C` [I-116, 5-(4-chlorophenyl)-2,3-dimethyl-7-(2-(oxetan-3-ylamino)pyridin-4-yl)pyrido[2,3-d]pyridazin-8 (7H)-one], the EC50 is 0.5 to 3 µM.
